Here are results for 10 compounds from article PMC12491715 (Acta Pharmaceutica Sinica. B, 2025).

Series [1] has as its target T1, hBChE (Homo sapiens, UniProt P06276). As to the kind of experiment: ChE IC50 determination, method of Ellman, hBChE. It is filed as biochemical. The conditions noted are these: for IC50 / remaining activity at 100 µM: after 5 min preincubation; for IC50: read-out: hBChE IC50±SD; for hBChE time-dependency observed: Yes/No: pre-incubation time varied; for ChE inhibition of the leaving groups: ChEs (hBChE and hAChE); for remaining activity at 100 µM: residual activity at 100 μmol/L, read-out: hBChE RA±SD (residual activity). On the procedure: (§1) The inhibitory potencies of the compounds against the ChEs were determined using the method of Ellman following the procedure described previously. Briefly, compound stock solutions in DMSO were incubated with Ellman’s reagent and ChEs (final concentrations: 370 μmol/L Ellman’s reagent, approximately 1 nmol/L or 50 pmol/L hBChE or hAChE, respectively) in 0.1 mol/L sodium phosphate pH 8.0 for 5 min at 20 °C. For time-dependency measurements, the pre-incubation time was varied (1, 5, 15, 30 or 60 min). The reactions were started by the addition of the substrate (final concentration, 500 μmol/L butyrylthiocholine iodide or acetylthiocholine iodide for hBChE and hAChE, respectively). The final content of DMSO was always 1%. The increase in absorbance at 412 nm was monitored for 2 min using a 96-well microplate reader (Synergy HT, BioTek Instruments, VT, USA). The initial velocities in the presence (vi) and absence (v0) of the test compounds were calculated. The inhibitory potencies were expressed as the residual activities, according to Eq. (1):(1) RA = vi / v0
(§2) For IC50 determinations, at least seven different concentrations for each compound were used. The IC50 values were obtained by plotting the residual ChE activities against the applied inhibitor concentrations, with the experimental data fitted to a four-parameter logistic function (GraphPad Prism 9.4). Tacrine and donepezil were used as positive controls.
On the technique in general: Ellman's reagent forms a yellow product with free thiols.

Series [2] can be described thus: Aqueous stability (UPLC). Particulars: for k / t1/2 in aqueous solution: PBS:EtOH = 80:20, 10 mmol/L; for k: pseudo-first order; for half-life: buffer, PBS:EtOH = 80:20, calculated half-lives only approximates, read-out: t1/2 in aqueous solution (converted). Type of series: physicochemical. On the procedure:
For the aqueous stability determination, UPLC analyses were performed as described under Chemistry–General Information. The method used a Waters Acquity UPLC® HSS C18 SB column (2.1 mm× 50 mm, 1.8 μm) thermostated at 40 °C, with: injection volume, 5 μL; flow rate, 0.4 mL/min; detector λ, 220 nm; mobile phase A: 0.1% TFA (v/v) in MilliQ water; mobile phase B: MeCN. Gradient: 0–5 min, 20%–100% B; 5–6 min, 20% B.
Compound stock solutions (100 mmol/L) were prepared in absolute EtOH, while the internal standard (caffeine) was dissolved in PBS (0.1 mg/mL). The aqueous stability solutions were prepared by mixing 1200 μL PBS with internal standard, 150 μL absolute EtOH, and 150 μL compound stock solution in a HPLC vial to give 10 mmol/L compound concentration in PBS/EtOH = 80:20, which was injected immediately and then at hourly intervals for 48 h. The analyte AUCs were normalized on internal standard AUCs and compared with the timepoint zero. For the rate calculation, pseudo-first order kinetics were assumed.
For investigation of compound 8 stability in an aqueous medium, its stock solution (10,000 mg/L) was prepared in EtOH. 15 μL of the stock solution was mixed with 60 μL of caffeine (2500 mg/L in EtOH) and 1425 μL of the respective aqueous solution/buffer to achieve final concentration of 100 mg/L with 5% ethanol content. The UPLC analysis was carried as described above.

Series [3] concerns the target hAChE (Homo sapiens, UniProt P22303). The experiment in a line: ChE IC50 determination, method of Ellman, hAChE. It is filed as biochemical. The conditions noted are these: for IC50 / remaining activity at 100 µM: after 5 min preincubation; for IC50: read-out: hAChE IC50±SD; for hAChE time-dependency observed: Yes/No: pre-incubation time varied; for remaining activity at 100 µM: residual activity at 100 μmol/L, read-out: hAChE RA±SD (residual activity). On the procedure: as §1, §2

The target of series [4] is T1, hBChE. As to the kind of experiment: hBChE binding kinetics: carbamoylation and decarbamoylation, initial velocity measurements. Type of series: biochemical. The method, then: The progress curves for the time courses of product formation for the hydrolysis of butyrylthiocholine iodide were measured on an Agilent Cary 3500 UV–VIS spectrophotometer with Compact Peltier (thermostated at 25 °C) at 412 nm using a 0.6 mL cuvette (optical path–0.5 cm). 30 mmol/L Tris buffer pH 7.0 with 1 mg/mL BSA and 0.02% NaN3 was used and all dilutions were done in glass vessels (note: dilute hBChE solutions rapidly lose activity, presumably due to adsorption to plastic, preventing meaningful decarbamoylation assays. In our hands, under the above conditions only, the diluted and stock solutions of hBChE were stable for at least a month at room temperature.). Total volume in the cuvette was always 500 μL, and enzyme solutions that gave upon dilution v0 = (dA/dt) ≈ 0.5 (for carbamoylation) and ≈ 1 for (for decarbamoylation) were used. For carbamoylation experiments, 0.5–1 μL of enzyme stock, 5 μL of compound solution, and 484 μL of buffer were preincubated for the specified time, then 10 μL of the mixture of 25 mmol/L Ellman’s reagent (DTNB) and 20 mmol/L butyrylthiocholine (large excess to prevent substrate depletion) were added, quickly mixed, and measurement started. […] The data analysis followed the literature[63]^,[98].

Series [5] has as its system caspase-3 activity in SH-SY5Y cells. The experiment in a line: Caspase-3 activity in lysates of Aβ1–42-treated cells. The conditions noted are these: 5 μmol/L compound, 5 μmol/L fibrillar Aβ1–42, 24 h. Type of series: cell-based, human. On the procedure: (§3) Cell culture and treatments The human neuroblastoma SH-SY5Y cell line was purchased from American Type Culture Collection (Manassas, VA, USA). Cells were cultured in Advanced Dulbecco’s modified Eagle’s medium (Gibco, Thermo Fisher Scientific, Waltham, MA, USA) supplemented with 10% fetal bovine serum (FBS, Gibco), 2 mmol/L L-glutamine, 50 U/mL penicillin and 50 μg/mL streptomycin (Sigma, St. Louis, MO, USA) in a humidified atmosphere of 95% air and 5% CO2 at 37 °C, and grown to 80% confluence. Prior to cell treatment, complete medium was replaced with serum-reduced medium (i.e., with 2% FBS). Compounds were prepared as a stock solution of 50 mmol/L in DMSO.
Caspase-3 activity and Western blot analysis The activity of caspases-3 was determined in total cell lysates of the SH-SY5Y cells treated as described. […] Following cell treatment for 24 h, cell lysates were prepared, and the caspase-3 activity was assessed using the fluorescent peptide substrate N-acetyl-L-α-aspartyl-L-α-glutamyl-L-valyl-N-[2-oxo-4-(trifluoromethyl)-2H-1-benzopyran-7-yl]-L-α-asparagine (Ac-DEVD-AFC; Bachem). […] Immediately after the addition of the substrate, fluorescence was monitored continuously for 30 min at an excitation wavelength of 405 nm and an emission wavelength of 535 nm using a Tecan Safire[2] fluorescence microplate reader. […]

In series [6] the test system is SH-SY5Y cells. The experiment in a line: Neuroprotection assay against Aβ1–42, 7-AAD flow cytometry. The conditions noted are these: 5 μmol/L compound, 5 μmol/L fibrillar Aβ1–42, 48 h. Type of series: cell-based, human. On the procedure:
as §3
Neuroprotection assay The neuroprotective effect of compounds on cytotoxic effect of Aβ1–42 was determined with the fluorescent intercalator 7-aminoactinomycin D (7-AAD) assessed by flow cytometry. Prior to cell treatment, the peptide Aβ1–42 (Merck Millipore, Darmstadt, Germany) was dissolved in DMSO at a concentration of 1 mmol/L and was incubated at 100 μmol/L in 1 mol/L HCl at 37 °C for 24 h to induce Aβ aggregation. […] Cells were then analysed for cytotoxicity by flow cytometry on Attune NxT flow cytometer (Thermo Fisher Scientific). The percentage of 7AAD positive (7AADpos) cells was evaluated using FlowJo software (FlowJo, LLC., Ashland, OR, USA).
(In flow cytometry, cells or beads pass a laser one at a time.)

hAChE, sequence (P22303 32-614): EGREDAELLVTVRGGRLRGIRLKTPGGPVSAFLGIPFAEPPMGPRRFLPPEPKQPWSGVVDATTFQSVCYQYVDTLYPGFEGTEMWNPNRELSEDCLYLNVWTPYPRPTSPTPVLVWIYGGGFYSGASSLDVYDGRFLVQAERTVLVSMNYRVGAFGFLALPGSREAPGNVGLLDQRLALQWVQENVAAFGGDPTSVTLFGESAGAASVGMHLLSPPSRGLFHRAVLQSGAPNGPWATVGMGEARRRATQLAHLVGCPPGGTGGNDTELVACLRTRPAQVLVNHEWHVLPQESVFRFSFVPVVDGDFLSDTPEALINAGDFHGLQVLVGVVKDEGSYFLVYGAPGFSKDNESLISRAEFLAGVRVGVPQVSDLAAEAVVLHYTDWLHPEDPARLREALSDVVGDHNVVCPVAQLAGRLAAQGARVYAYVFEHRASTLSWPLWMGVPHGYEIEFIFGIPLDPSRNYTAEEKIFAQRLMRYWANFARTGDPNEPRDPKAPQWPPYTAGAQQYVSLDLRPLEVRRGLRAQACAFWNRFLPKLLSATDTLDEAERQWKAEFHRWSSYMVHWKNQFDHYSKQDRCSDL
T1 sequence (P06276 29-602): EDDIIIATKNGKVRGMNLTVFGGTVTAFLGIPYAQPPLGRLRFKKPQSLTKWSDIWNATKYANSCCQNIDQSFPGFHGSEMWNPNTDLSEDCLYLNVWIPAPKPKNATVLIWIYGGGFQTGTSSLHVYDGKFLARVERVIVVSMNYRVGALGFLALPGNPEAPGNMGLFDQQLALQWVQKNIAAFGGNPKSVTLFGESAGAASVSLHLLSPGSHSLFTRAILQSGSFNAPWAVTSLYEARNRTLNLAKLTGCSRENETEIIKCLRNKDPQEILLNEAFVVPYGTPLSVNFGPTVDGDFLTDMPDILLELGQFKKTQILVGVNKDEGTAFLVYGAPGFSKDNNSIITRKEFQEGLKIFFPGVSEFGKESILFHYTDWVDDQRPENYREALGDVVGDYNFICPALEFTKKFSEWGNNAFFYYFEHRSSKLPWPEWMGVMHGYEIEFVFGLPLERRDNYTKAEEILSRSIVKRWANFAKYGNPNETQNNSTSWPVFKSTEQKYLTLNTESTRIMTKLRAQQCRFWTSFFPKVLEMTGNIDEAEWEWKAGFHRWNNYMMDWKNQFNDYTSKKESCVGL

By IC50 is commonly meant the concentration needed to halve the response being measured. Take `CCC1(c2ncn(C(=O)N(C)C)n2)Cc2ccccc2C1` [Compound 17, 3-(2-Ethylindan-2-yl)-N,N-dimethyl-1H-1,2,4-triazole-1-carboxamide]: in series [1], the IC50 came out at 5 ± 1.2 nM and the “hBChE time-dependency observed: Yes/No” value is reported as “Yes”. In series [2], the k is listed as 0.000628 h–1 and the half-life was roughly 46 days. Moreover, in series [3], the concentration for half-maximal inhibition (IC50) turned out to be 2930 ± 1280 nM and the “hAChE time-dependency observed: Yes/No” value is “Yes”.
`CCC1(c2nc[nH]n2)Cc2ccccc2C1` [Compound 16, 3-(2-Ethylindan-2-yl)-1H-1,2,4-triazole]: in series [1], the “ChE inhibition of the leaving groups” value is reported as “ineffective” and the remaining activity at 100 µM was 89%. In addition, the remaining activity at 100 µM in series [3] came out at 83%.
As to `CCC1(c2cn(C(=O)N(C)C)c[n+]2C)Cc2ccccc2C1.O=S(=O)([O-])C(F)(F)F` [Compound 13, 1-(Dimethylcarbamoyl)-4-(2-ethylindan-2-yl)-3-methyl-1H-imidazol-3-ium trifluoromethanesulfonate], in series [1], the IC50 is 8.4 ± 4.6 nM and the “hBChE time-dependency observed: Yes/No” value is given as “Yes”. For the same compound, in series [2], the “t1/2 in aqueous solution” value is 0.55 days and the k was found to be 0.05236 h–1. Moreover, in series [3], the IC50 was found to be 3190 ± 400 nM and the “hAChE time-dependency observed: Yes/No” value is listed as “Yes”.
For the compound `CCC1(c2cn(C(=O)N(C)Cc3ccccc3)cn2)Cc2ccccc2C1` [Compound 10, N-Benzyl-4-(2-ethylindan-2-yl)-N-methyl-1H-imidazole-1-carboxamide], in series [1], the IC50 was determined as 53 ± 10 nM and the “hBChE time-dependency observed: Yes/No” value is listed as “Yes”. In addition, in series [3], the “hAChE time-dependency observed: Yes/No” value is recorded as “Yes” and the remaining activity at 100 µM is 34%.
As to `CCC1(c2cn(C(=S)N(C)C)cn2)Cc2ccccc2C1` [Compound 11, 4-(2-Ethylindan-2-yl)-N,N-dimethyl-1H-imidazole-1-carbothioamide], in series [1], the “hBChE time-dependency observed: Yes/No” value is listed as “Yes” and the remaining activity at 100 µM turned out to be 49%. In addition, in series [3], the remaining activity at 100 µM was 69%.
In general, Ki refers to a measure of affinity in units of concentration, obtained from inhibition or displacement. Low readings indicate tighter binding, high ones weaker binding. In series [4], `CCC1(c2cn(C(=O)N(C)C)cn2)Cc2ccccc2C1` [Compound 6, 4-(2-Ethylindan-2-yl)-N,N-dimethyl-1H-imidazole-1-carboxamide] showed a Ki of 116 ± 3 nM. For the same compound, in series [4] (25 °C), the “kcarb, carbamoylation” value was found to be 9.0±2.5 min^–1; the “kdecarb, decarbamoylation” value is given as 3.59±0.28 ×10^–2 h^–1; the “t1/2, decarbamoylation” value amounted to 0.804 ± 0.0625 days; the “ΔG25°C‡, carbamoylation” value turned out to be 18.6 ± 0.2 kcal/mol. Also, in series [1], the “selectivity for hBChE over hAChE” value turned out to be 2500 fold, the IC50 came out at 14 ± 2 nM and the “hBChE time-dependency observed: Yes/No” value is reported as “Yes”. Besides, in series [2] (during 48 h), the “t1/2 in aqueous solution” value is “stable”. The “caspase-3 activity after Aβ1–42 treatment” value in series [5] is recorded as “significant reduction”. In series [3], the concentration for half-maximal inhibition (IC50) stood at 32800 nM and the “hAChE time-dependency observed: Yes/No” value is reported as “Yes”. In addition, the “7-AAD-positive cells after Aβ1–42 treatment” value in series [6] is “significant reduction”.
For `CCC1(c2cn(C(=O)N3CCCCC3)cn2)Cc2ccccc2C1` [Compound 9, (4-(2-Ethylindan-2-yl)-1H-imidazol-1-yl)(piperidin-1-yl)methanone], in series [1], the IC50 is 2.5 ± 2 nM and the “hBChE time-dependency observed: Yes/No” value was “Yes”. Besides, in series [3], the IC50 was determined as 7550 ± 2140 nM and the “hAChE time-dependency observed: Yes/No” value is given as “Yes”.
Consider `CCC1(c2cn[nH]n2)Cc2ccccc2C1` [Compound 14, 4-(2-Ethylindan-2-yl)-2H-1,2,3-triazole], for which, in series [1], the “ChE inhibition of the leaving groups” value is “ineffective”. The remaining activity at 100 µM was found to be 82% in series [1] and 85% in series [3].
On to `CCC1(c2cnn(C(=O)N(C)C)n2)Cc2ccccc2C1` [Compound 15, 4-(2-Ethylindan-2-yl)-N,N-dimethyl-2H-1,2,3-triazole-2-carboxamide], for which, in series [1], the IC50 was found to be 1.9 ± 0.5 nM and the “hBChE time-dependency observed: Yes/No” value is recorded as “Yes”. For the same compound, in series [2], the k is on record as 0.000982 h–1 and the half-life is roughly 29 days. In series [3], the IC50 came out at 234 ± 46 nM and the “hAChE time-dependency observed: Yes/No” value is given as “Yes”.
`CCC1(c2cncn2C)Cc2ccccc2C1` [Compound 12, 5-(2-Ethylindan-2-yl)-1-methyl-1H-imidazole]: the “ChE inhibition of the leaving groups” value in series [1] is recorded as “ineffective”. The remaining activity at 100 µM worked out at 67% in series [1] and 74% in series [3].
